The source made the active and inactive calls. The calls are words filed in the database; no cut-off is given here.
Key:
RAW264.7 [1] = assay: Inhibition of NF-kappaB/p38 MAPK signaling pathway in mouse RAW264.7 cells assessed as reduction in RANKL-induced NFATc1 nuclear translocation after 24 hrs by Western blot method; type: cell-based
[2] = target: T1, MAP kinase p38 (Mus musculus) (UniProt P47811+O08911+Q9WUI1+Q9Z1B7); assay: Inhibition of p38 MAPK signaling pathway in mouse RAW264.7 cells assessed as reduction in RANKL-induced JNK phosphorylation at 10 to 40 uM after 30 mins by Western blot method; type: cell-based
Mus musculus [3] = assay: Anti-osteoporotic activity in Balb/c mouse assessed as decrease in OVX-induced trabecular bone surface in femur at 25 to 100 mg/kg, ip administered for 4 weeks daily by microcomputed tomography; type: functional, organism-based
RAW264.7 [4] = assay: Inhibition of RANKL-induced osteoclast differentiation in mouse RAW264.7 cells assessed as TRAP activity after 5 days in presence of PKA inhibitor H89; type: functional, cell-based
[5] = target: T2, Estrogen receptor (Mus musculus) (UniProt P19785); assay: Induction of estrogen receptor-mediated AMPKalpha1 activation in mouse RAW264.7 cells at 20 uM in presence of CAMKKbeta inhibitor STO609; type: cell-based
T2 sequence (whole entry): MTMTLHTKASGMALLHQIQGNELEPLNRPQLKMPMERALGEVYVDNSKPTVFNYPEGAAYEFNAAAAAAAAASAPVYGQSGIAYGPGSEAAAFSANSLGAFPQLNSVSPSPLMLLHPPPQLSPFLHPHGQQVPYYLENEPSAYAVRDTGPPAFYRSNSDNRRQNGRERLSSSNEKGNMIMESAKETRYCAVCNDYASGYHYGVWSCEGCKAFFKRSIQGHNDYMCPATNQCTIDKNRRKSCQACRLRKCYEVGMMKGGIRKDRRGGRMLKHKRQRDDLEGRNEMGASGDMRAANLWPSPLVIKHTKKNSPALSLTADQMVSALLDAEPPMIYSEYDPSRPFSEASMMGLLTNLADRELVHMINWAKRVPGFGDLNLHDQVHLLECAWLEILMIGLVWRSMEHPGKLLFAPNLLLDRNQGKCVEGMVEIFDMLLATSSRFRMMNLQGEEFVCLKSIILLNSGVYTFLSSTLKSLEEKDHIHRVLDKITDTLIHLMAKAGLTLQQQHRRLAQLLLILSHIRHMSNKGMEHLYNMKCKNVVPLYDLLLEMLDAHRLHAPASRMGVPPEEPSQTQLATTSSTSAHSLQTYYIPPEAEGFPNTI

Mus musculus [6] = assay: Anti-osteoporotic activity in ip dosed OVX-induced bone loss in femur of Balb/c mouse administered for 4 weeks daily by microcomputed tomography; type: functional, organism-based
[7] = target: T2, Estrogen receptor (Mus musculus); assay: Induction of estrogen receptor-mediated AMPKalpha1 activation in mouse RAW264.7 cells at 20 uM in presence of estrogen receptor antagonist fulvestrant; type: cell-based
RAW264.7 [8] = assay: Inhibition of NF-kappaB/p38 MAPK signaling pathway in mouse RAW264.7 cells assessed as reduction in RANKL-induced c-Fos mRNA level after 24 hrs by qRT-PCR method; type: cell-based
RAW264.7 [9] = assay: Inhibition of RANKL-induced osteoclast differentiation in mouse RAW264.7 cells harboring AMPKalpha1 siRNA assessed as decrease in number of TRAP-positive multinucleated cells after 5 days by microscopy; type: functional, cell-based
RAW264.7 [10] = assay: Inhibition of RANKL-induced osteoclast differentiation in mouse RAW264.7 cells assessed as decrease in number of TRAP-positive multinucleated cells at 20 uM after 5 days in presence of ERbeta antagonist PHTPP by microscopy; type: functional, cell-based
[11] = target: T2, Estrogen receptor (Mus musculus); assay: Induction of estrogen receptor-mediated AMPKalpha1 activation in mouse RAW264.7 cells at 20 uM in presence of PKA inhibitor H89; type: cell-based
Mus musculus [12] = assay: Anti-osteoporotic activity in Balb/c mouse assessed as inhibition of OVX-mediated decrease in trabecular number in femur at 25 to 100 mg/kg, ip administered for 4 weeks daily by microcomputed tomography; type: functional, organism-based
RAW264.7 [13] = assay: Inhibition of RANKL-induced osteoclast differentiation in mouse RAW264.7 cells assessed as decrease in NFATc1 mRNA level at 20 uM after 24 hrs in presence of ERalpha antagonist MPP by qRT-PCR method; type: functional, cell-based
RAW264.7 [14] = assay: Inhibition of RANKL-induced osteoclast differentiation in mouse RAW264.7 cells harboring AMPKalpha1 siRNA assessed as decrease in size of TRAP-positive multinucleated cells after 5 days by microscopy; type: functional, cell-based
Estrogen receptor beta = Estrogen receptor beta (Homo sapiens, UniProt Q92731); assay: Inhibition of fluoromone binding to recombinant human full length untagged ERbeta expressed in insect cells after 2 hrs by fluorescence polarization assay
[15] = target: 5'-AMP-activated protein kinase catalytic subunit alpha-1 (Mus musculus) (UniProt Q5EG47); assay: Activation of AMPKalpha1 in mouse RAW264.7 cells assessed as increase in AMPK phosphorylation at 10 to 40 uM after 24 hrs by Western blot method; type: cell-based
RAW264.7 [16] = assay: Inhibition of NF-kappaB/p38 MAPK signaling pathway in mouse RAW264.7 cells assessed as reduction in RANKL-induced cathepsin K mRNA level after 24 hrs by qRT-PCR method; type: cell-based
RAW264.7 [17] = assay: Inhibition of RANKL-induced osteoclast differentiation in mouse RAW264.7 cells harboring AMPKalpha1 siRNA assessed as decrease in NFATc1 mRNA level at 20 uM after 24 hrs by qRT-PCR method; type: functional, cell-based
RAW264.7 [18] = assay: Inhibition of RANKL-induced osteoclast differentiation in mouse RAW264.7 cells harboring ERbeta siRNA assessed as decrease in size of TRAP-positive multinucleated cells at 20 uM after 5 days by microscopy; type: functional, cell-based
Mus musculus [19] = assay: Anti-osteoporotic activity in Balb/c mouse assessed as decrease in OVX-induced trabecular pattern factor in femur at 25 to 100 mg/kg, ip administered for 4 weeks daily by microcomputed tomography; type: functional, organism-based
Mus musculus [20] = assay: Anti-osteoporotic activity in Balb/c mouse assessed as inhibition of OVX-induced TRAP mRNA expression level in bone marrow at 25 to 100 mg/kg, ip administered for 4 weeks daily by qRT-PCR method; type: functional, organism-based
RAW264.7 [21] = assay: Inhibition of RANKL-induced osteoclast differentiation in mouse RAW264.7 cells harboring ERalpha siRNA assessed as decrease in TRAP mRNA level at 20 uM after 24 hrs by qRT-PCR method; type: functional, cell-based
RAW264.7 [22] = assay: Inhibition of RANKL-induced osteoclast differentiation in mouse RAW264.7 cells harboring ERbeta siRNA assessed as decrease in TRAP mRNA level at 20 uM after 24 hrs by qRT-PCR method; type: functional, cell-based
RAW264.7 [23] = assay: Inhibition of RANKL-induced osteoclast differentiation in mouse RAW264.7 cells harboring AMPKalpha1 siRNA assessed as decrease in TRAP mRNA level at 20 uM after 24 hrs by qRT-PCR method; type: functional, cell-based
[24] = target: T1, MAP kinase p38 (Mus musculus); assay: Inhibition of p38 MAPK signaling pathway in mouse RAW264.7 cells assessed as reduction in RANKL-induced ERK phosphorylation at 10 to 40 uM after 30 mins by Western blot method; type: cell-based

Chain of 5'-AMP-activated protein kinase catalytic subunit alpha-1 (Mus musculus) (Q5EG47 whole entry): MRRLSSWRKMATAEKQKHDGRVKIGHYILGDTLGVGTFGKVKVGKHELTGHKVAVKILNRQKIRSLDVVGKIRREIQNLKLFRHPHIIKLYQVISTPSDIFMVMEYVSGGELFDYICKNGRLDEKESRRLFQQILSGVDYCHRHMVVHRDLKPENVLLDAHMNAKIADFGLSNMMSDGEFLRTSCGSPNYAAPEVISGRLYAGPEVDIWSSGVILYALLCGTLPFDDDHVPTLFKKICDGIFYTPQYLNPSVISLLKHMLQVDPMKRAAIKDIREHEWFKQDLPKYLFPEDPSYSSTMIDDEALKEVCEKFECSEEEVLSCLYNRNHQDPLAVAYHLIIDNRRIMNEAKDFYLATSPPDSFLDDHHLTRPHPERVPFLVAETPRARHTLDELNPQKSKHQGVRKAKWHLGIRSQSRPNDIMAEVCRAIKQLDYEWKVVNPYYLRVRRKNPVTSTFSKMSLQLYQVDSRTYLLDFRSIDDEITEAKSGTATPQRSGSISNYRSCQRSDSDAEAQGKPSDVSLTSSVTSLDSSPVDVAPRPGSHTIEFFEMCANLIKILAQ
Chain of Estrogen receptor beta (Q92731 whole entry): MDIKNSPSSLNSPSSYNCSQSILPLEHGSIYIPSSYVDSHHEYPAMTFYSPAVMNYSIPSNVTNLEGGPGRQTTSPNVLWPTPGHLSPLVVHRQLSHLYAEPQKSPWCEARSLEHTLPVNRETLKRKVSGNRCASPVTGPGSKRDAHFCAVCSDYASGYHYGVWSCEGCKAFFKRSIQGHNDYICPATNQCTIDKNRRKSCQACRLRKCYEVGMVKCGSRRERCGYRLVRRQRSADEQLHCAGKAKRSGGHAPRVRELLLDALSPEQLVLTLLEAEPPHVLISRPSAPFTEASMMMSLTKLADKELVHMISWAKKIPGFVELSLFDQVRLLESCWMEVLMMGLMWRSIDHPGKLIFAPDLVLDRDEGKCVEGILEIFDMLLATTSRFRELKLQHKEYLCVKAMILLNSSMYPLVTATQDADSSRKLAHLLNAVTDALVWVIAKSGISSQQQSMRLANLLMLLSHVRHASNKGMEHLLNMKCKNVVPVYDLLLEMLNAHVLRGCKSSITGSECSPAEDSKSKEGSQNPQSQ

- inhibition [2]: inactive
- Activity [5]: Active
- Activity [7]: inactive
- Activity [11]: Active
- IC50 (Estrogen receptor beta): 286 nM
- Activity [15]: Active
- inhibition [24]: inactive
Structure (SMILES): COc1cc(C2Oc3c(OC)cc(/C=C/CO)cc3C2CO)ccc1O (stereo not given)
- inhibition (RAW264.7 [1]): Dose-dependent effect
- Activity (Mus musculus [3]): Active
- inhibition (RAW264.7 [4]): Active
- Activity (Mus musculus [6]): Dose-dependent effect
- inhibition (RAW264.7 [8]): Dose-dependent effect
- inhibition (RAW264.7 [9]): inactive
- inhibition (RAW264.7 [10]): Active
- inhibition (Mus musculus [12]): Active
- inhibition (RAW264.7 [13]): inactive
- inhibition (RAW264.7 [14]): inactive
- inhibition (RAW264.7 [16]): Dose-dependent effect
- inhibition (RAW264.7 [17]): inactive
- inhibition (RAW264.7 [18]): Active
- Activity (Mus musculus [19]): Active
- inhibition (Mus musculus [20]): Active
- inhibition (RAW264.7 [21]): inactive
- inhibition (RAW264.7 [22]): Active
- inhibition (RAW264.7 [23]): inactive

Reference: ChEMBL document CHEMBL4145608, “Dehydrodiconiferyl Alcohol Inhibits Osteoclast Differentiation and Ovariectomy-Induced Bone Loss through Acting as an Estrogen Receptor Agonist” (J Nat Prod, 2018)
